Peptide text beside a SMILES is read from it.
Experiments:
[1] = test system: TSHR-immunized diseased mice; conditions: previous study (8); cited from earlier work
[2] = test system: immunologically naïve mice; test: Studies in immunologically naive mice: 6 monthly IV administrations; format: in vivo, BALB/c mice; conditions: 1 mg/kg bw IV, 6 monthly administrations
Description: BALB/c mice were adapted for at least one week to start experiments at the age of 12 weeks. Animals were kept as described before. This study was approved by the local animal welfare authority and Ethics committee at the Regierung von Oberbayern (Government of Upper Bavaria) in Munich, Germany (no. 55.2-1-54-2532.0-32-15), and carried out in accordance to the European Commission guidelines.
Peptides (1 mg/kg body weight) or NaCl vehicle control were given by IV injection into a tail vein of these naïve mice (n=6 per group), and then continued at 4-weekly intervals for 6 months, as described before for the therapeutic study in immunized mice. Serum samples were taken at identical intervals.

| Compound | Improvement of disease parameters [1] | Tolerability / clinical findings [2] |
| --- | --- | --- |
| SPPCECHQEEDFRVTCKDIQRIPS (cyclic; Amino acid sequence derived from human thyrotropin-TSH receptor (TSHR)) [peptide 829] | small, non-significant trends to improve disease parameters |  |
| CC(C)C[C@@H]1NC(=O)[C@H](Cc2ccc(O)cc2)NC(=O)[C@H](C(C)C)NC(=O)[C@H](C)NC(=O)[C@H](CC(=O)O)NC(=O)[C@H](CC(C)C)NC(=O)[C@H](CCCCN)NC(=O)[C@H]([C@@H](C)O)NC(=O)CNC(=O)[C@H](CCCCN)NC(=O)[C@H](CC(N)=O)NC(=O)[C@H](CCCCN)NC(=O)[C@H](CC(N)=O)NC1=O [peptide 836 13mer, TKLDAVYLNKNKG] (HELM PEPTIDE1{A.V.Y.L.N.K.N.K.G.T.K.L.D}$PEPTIDE1,PEPTIDE1,1:R1-13:R2$$$V2.0) |  | no pathological clinical findings were observed |
| CC(C)[C@@H]1NC(=O)[C@H](CCCNC(=N)N)NC(=O)[C@H](Cc2ccccc2)NC(=O)[C@H](CC(=O)O)NC(=O)[C@H](CCC(=O)O)NC(=O)[C@H](CCC(=O)O)NC(=O)[C@H](CCC(N)=O)NC(=O)[C@H](Cc2c[nH]cn2)NC(=O)[C@@H](N)CSSC[C@@H](C(=O)O)NC(=O)[C@H]([C@@H](C)O)NC1=O [peptide 19, CHQEEDFRVTC] (HELM PEPTIDE1{C.H.Q.E.E.D.F.R.V.T.C}$PEPTIDE1,PEPTIDE1,1:R3-11:R3$$$V2.0) |  | no pathological clinical findings were observed |

Reference: patent US12060409B2, “Short cyclic peptides for the treatment of Graves' disease” (priority 2018, dated 2024)
